Laboratory results taken from ChEMBL document CHEMBL1201862, “PubChem BioAssay data set” (2004).
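Protocol summary: plate cells (96-well), add compound at 5 concentrations, incubate 48 h, interpolate endpoints linearly. GI50: concentration for 50% inhibition of growth.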 Activity calls are given as the source filed them. Cut-off read from the data, not from the text of the source: active = GI50 up to about 1.1 µM and inactive = higher.

Columns and labels:
Assay in all cases: NCI tumour cell line growth inhibition, 48 h
HT-29 = tested on: HT-29
COLO 205 = tested on: COLO 205
SNB-19 = tested on: SNB-19
EKVX = tested on: EKVX
HOP-92 = tested on: HOP-92
LOX IMVI = tested on: LOX IMVI
IGROV-1 = tested on: IGROV-1
CCRF-CEM = tested on: CCRF-CEM
CAKI-1 = tested on: CAKI-1
HOP-62 = tested on: HOP-62
HCC 2998 = tested on: HCC 2998
SF-295 = tested on: SF-295
RXF 393 = tested on: RXF 393
SW-620 = tested on: SW-620
OVCAR-8 = tested on: OVCAR-8
A549 = tested on: A549
OVCAR-4 = tested on: OVCAR-4
HL-60 = tested on: HL-60
NCI-H522 = tested on: NCI-H522

Measured: GI50

CSc1nc(NC2OC(COC(C)=O)C(OC(C)=O)C(OC(C)=O)C2OC(C)=O)c2c(OC(C)=O)c(C)c(=O)oc2n1 (stereo unspecified)
inactive: HT-29 > 100 µM | COLO 205 > 100 µM | SNB-19 > 100 µM | EKVX > 100 µM | HOP-92 > 100 µM | LOX IMVI > 100 µM | IGROV-1 > 100 µM | CCRF-CEM > 100 µM | CAKI-1 > 100 µM | HOP-62 > 100 µM | HCC 2998 > 100 µM | SF-295 > 100 µM | RXF 393 > 100 µM | SW-620 > 100 µM | OVCAR-8 > 100 µM | A549 > 100 µM | OVCAR-4 > 100 µM | HL-60 > 100 µM

CN(C)CCCNC(=O)N/N=C/c1ccccc1
inactive: HT-29 > 100 µM | NCI-H522 > 100 µM | SNB-19 > 100 µM | LOX IMVI > 100 µM | IGROV-1 > 100 µM | CCRF-CEM > 100 µM | SF-295 > 100 µM | RXF 393 > 100 µM | SW-620 > 100 µM | OVCAR-8 > 100 µM | A549 > 100 µM | HL-60 > 100 µM

Cc1ccc(S(=O)(=O)N(C=O)N=C2CCN(Cc3ccccc3)CC2)cc1
inactive: HT-29 > 100 µM | COLO 205 > 100 µM | NCI-H522 > 100 µM | SNB-19 > 100 µM | EKVX > 100 µM | LOX IMVI > 100 µM | IGROV-1 > 100 µM | CCRF-CEM > 100 µM | CAKI-1 > 100 µM | HOP-62 > 100 µM | HCC 2998 > 100 µM | SF-295 > 100 µM | RXF 393 > 100 µM | SW-620 > 100 µM | OVCAR-8 > 100 µM | A549 > 100 µM | OVCAR-4 > 100 µM | HL-60 > 100 µM

COc1ccc(/C=C2\C(=O)N(C(=O)c3ccc(NC(C)=O)cc3)N=C2C)cc1
inactive: HT-29 > 100 µM | COLO 205 > 100 µM | NCI-H522 > 100 µM | SNB-19 > 100 µM | EKVX > 100 µM | LOX IMVI > 100 µM | CCRF-CEM > 100 µM | CAKI-1 > 100 µM | HOP-62 > 100 µM | HCC 2998 > 100 µM | SF-295 > 100 µM | SW-620 > 100 µM | OVCAR-8 > 100 µM | A549 > 100 µM | OVCAR-4 > 100 µM | HL-60 > 100 µM

C=CCOCCC(CC=C)C(=O)CC(=O)OC (stereo unspecified)
inactive: HT-29 > 100 µM | NCI-H522 > 100 µM | SNB-19 > 100 µM | EKVX > 100 µM | HOP-92 90.4 µM | LOX IMVI 27.9 µM | IGROV-1 > 100 µM | CCRF-CEM 4.23 µM | HOP-62 > 100 µM | HCC 2998 > 100 µM | SF-295 > 100 µM | RXF 393 > 100 µM | SW-620 > 100 µM | OVCAR-8 > 100 µM | A549 > 100 µM | OVCAR-4 > 100 µM | HL-60 13.5 µM

Nc1ccccc1S(=O)(=O)c1ccccc1
inactive: HT-29 > 100 µM | COLO 205 > 100 µM | SNB-19 > 100 µM | EKVX > 100 µM | HOP-92 > 100 µM | LOX IMVI > 100 µM | IGROV-1 > 100 µM | CCRF-CEM > 100 µM | HOP-62 > 100 µM | HCC 2998 > 100 µM | SF-295 > 100 µM | RXF 393 > 100 µM | SW-620 > 100 µM | OVCAR-8 > 100 µM | A549 > 100 µM | OVCAR-4 > 100 µM | HL-60 > 100 µM

O=c1c(-c2ccccc2)c2oc(c1-c1ccccc1)CS(=O)(=O)CCC2
inactive: HT-29 25.5 µM | COLO 205 21 µM | NCI-H522 9.98 µM | SNB-19 > 100 µM | EKVX > 100 µM | HOP-92 > 100 µM | LOX IMVI 20.2 µM | IGROV-1 45 µM | CCRF-CEM 23.8 µM | CAKI-1 28.8 µM | HOP-62 42.6 µM | HCC 2998 > 10 µM | SF-295 > 100 µM | RXF 393 13.8 µM | SW-620 32.7 µM | OVCAR-8 36.8 µM | A549 57.3 µM | HL-60 25.6 µM

O=C1CCCCC2N(C(c3ccccc3)c3ccccc3)CC[C@@]12c1ccccc1.O=C1CCCC[C@H]2N(C(c3ccccc3)c3ccccc3)CC[C@@]12c1ccccc1 (stereo partly specified)
inactive: HT-29 4 µM | NCI-H522 3.68 µM | SNB-19 > 10 µM | EKVX 7.73 µM | HOP-92 2.56 µM | LOX IMVI 6.3 µM | IGROV-1 > 10 µM | CCRF-CEM 6.12 µM | CAKI-1 4.83 µM | SF-295 > 10 µM | RXF 393 4.32 µM | OVCAR-8 > 10 µM | A549 > 10 µM | OVCAR-4 4.21 µM | HL-60 2.87 µM
